# Source: PubChem BioAssay AID2060489 (Molecular Pharmacology Branch, DTP, NCI, 2025)
# Test system: 922993-354-T-J3-PDC complex spheroids, viability
# Test: Anticancer human tumor 922993-354-T-J3-PDC patient-derived endometrial carcinoma cell line growth inhibition [GQUAD]
# Details: for IC50: curve of first compound; for viability, T/C: stronger effect = lower value
# Summary of the method: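 Multi-cell-type spheroids of tumor cells with HUVEC and mesenchymal stem cells, treated with drug combinations. Concentrations descend in half-log steps from near clinical Cmax, or from 10 microM where Cmax is unknown; viability read-out.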
# [1] = second compound 0.0316 µM, first compound 0.0316 µM
# [2] = second compound 0.0316 µM, first compound 0.1 µM
# [3] = second compound 0.0316 µM, first compound 0.316 µM
# [4] = second compound 0.0316 µM, first compound 1 µM
# [5] = second compound 0.0316 µM, first compound 3.16 µM
# [6] = second compound 0.0316 µM, first compound 10 µM
# [7] = second compound 0.1 µM, first compound 0.0316 µM
# [8] = second compound 0.1 µM, first compound 0.1 µM
# [9] = second compound 0.1 µM, first compound 0.316 µM
# [10] = second compound 0.1 µM, first compound 1 µM
# [11] = second compound 0.1 µM, first compound 3.16 µM
# [12] = second compound 0.1 µM, first compound 10 µM
# [13] = second compound 0.316 µM, first compound 0.0316 µM
# [14] = second compound 0.316 µM, first compound 0.1 µM
# [15] = second compound 0.316 µM, first compound 0.316 µM
# [16] = second compound 0.316 µM, first compound 1 µM
# [17] = second compound 0.316 µM, first compound 3.16 µM
# [18] = second compound 0.316 µM, first compound 10 µM
# [19] = second compound 1 µM, first compound 0.0316 µM
# [20] = second compound 1 µM, first compound 0.1 µM
# [21] = second compound 1 µM, first compound 0.316 µM
# [22] = second compound 1 µM, first compound 1 µM
# [23] = second compound 1 µM, first compound 3.16 µM
# [24] = second compound 1 µM, first compound 10 µM
# [25] = second compound 3.16 µM, first compound 0.0316 µM
# [26] = second compound 3.16 µM, first compound 0.1 µM
# [27] = second compound 3.16 µM, first compound 0.316 µM
# [28] = second compound 3.16 µM, first compound 1 µM
# [29] = second compound 3.16 µM, first compound 3.16 µM
# [30] = second compound 3.16 µM, first compound 10 µM
# [31] = second compound 10 µM, first compound 0.0316 µM
# [32] = second compound 10 µM, first compound 0.1 µM
# [33] = second compound 10 µM, first compound 0.316 µM
# [34] = second compound 10 µM, first compound 1 µM
# [35] = second compound 10 µM, first compound 3.16 µM
# [36] = second compound 10 µM, first compound 10 µM
# 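Also: spheroids exposed to compounds for seven days.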
# 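For viability, T/C in this document: 100% = DMSO vehicle control viability.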
smiles,measurement,setting,value
COc1ccc([C@@H](O)c2cc(-c3ncnc4cc(N5CCOCC5)ccc34)c(F)cc2Cl)nn1 + CN(C)c1ccc(Nc2c3ccc(NC(=O)CCN4CCCC4)cc3nc3cc(NC(=O)CCN4CCCC4)ccc23)cc1,IC50,second compound 0.0316 µM,> 10 µM
same,IC50,second compound 0.1 µM,> 10 µM
same,IC50,second compound 0.316 µM,> 10 µM
same,IC50,second compound 1 µM,> 10 µM
same,IC50,second compound 3.16 µM,> 10 µM
same,IC50,second compound 10 µM,> 10 µM
same,"viability, T/C",[1],101%
same,"viability, T/C",[2],111%
same,"viability, T/C",[3],103%
same,"viability, T/C",[4],111%
same,"viability, T/C",[5],104%
same,"viability, T/C",[6],82.3%
same,"viability, T/C",[7],105%
same,"viability, T/C",[8],99.5%
same,"viability, T/C",[9],89.7%
same,"viability, T/C",[10],88.2%
same,"viability, T/C",[11],84.8%
same,"viability, T/C",[12],71.8%
same,"viability, T/C",[13],76.6%
same,"viability, T/C",[14],103%
same,"viability, T/C",[15],83.6%
same,"viability, T/C",[16],79%
same,"viability, T/C",[17],86.9%
same,"viability, T/C",[18],71.4%
same,"viability, T/C",[19],119%
same,"viability, T/C",[20],106%
same,"viability, T/C",[21],104%
same,"viability, T/C",[22],101%
same,"viability, T/C",[23],88.4%
same,"viability, T/C",[24],79.2%
same,"viability, T/C",[25],81.5%
same,"viability, T/C",[26],101%
same,"viability, T/C",[27],120%
same,"viability, T/C",[28],105%
same,"viability, T/C",[29],97.7%
same,"viability, T/C",[30],75.1%
same,"viability, T/C",[31],105%
same,"viability, T/C",[32],110%
same,"viability, T/C",[33],134%
same,"viability, T/C",[34],88.6%
same,"viability, T/C",[35],109%
same,"viability, T/C",[36],83.1%
C=CC(=O)N1CCN(c2nc(=O)n(-c3c(C)ccnc3C(C)C)c3nc(-c4c(O)cccc4F)c(F)cc23)C(C)C1 (stereo not drawn) + Cc1[nH]c2ccc(F)cc2c1-c1nc2c3cccnc3c3ncccc3c2[nH]1,IC50,second compound 0.0316 µM,> 10 µM
same,IC50,second compound 0.1 µM,> 10 µM
same,IC50,second compound 0.316 µM,> 10 µM
same,IC50,second compound 1 µM,> 10 µM
same,IC50,second compound 3.16 µM,> 10 µM
same,IC50,second compound 10 µM,> 10 µM
same,"viability, T/C",[1],94.6%
same,"viability, T/C",[2],86%
same,"viability, T/C",[3],94.8%
same,"viability, T/C",[4],101%
same,"viability, T/C",[5],111%
same,"viability, T/C",[6],116%
same,"viability, T/C",[7],106%
same,"viability, T/C",[8],69.4%
same,"viability, T/C",[9],99.3%
same,"viability, T/C",[10],127%
same,"viability, T/C",[11],92%
same,"viability, T/C",[12],98.7%
same,"viability, T/C",[13],130%
same,"viability, T/C",[14],95%
same,"viability, T/C",[15],117%
same,"viability, T/C",[16],118%
same,"viability, T/C",[17],114%
same,"viability, T/C",[18],113%
same,"viability, T/C",[19],92.9%
same,"viability, T/C",[20],124%
same,"viability, T/C",[21],133%
same,"viability, T/C",[22],112%
same,"viability, T/C",[23],93.6%
same,"viability, T/C",[24],107%
same,"viability, T/C",[25],114%
same,"viability, T/C",[26],91.2%
same,"viability, T/C",[27],105%
same,"viability, T/C",[28],104%
same,"viability, T/C",[29],96.2%
same,"viability, T/C",[30],88%
same,"viability, T/C",[31],88.7%
same,"viability, T/C",[32],103%
same,"viability, T/C",[33],81.3%
same,"viability, T/C",[34],90.7%
same,"viability, T/C",[35],103%
same,"viability, T/C",[36],87.1%
CC1COCCN1c1cc(C2(S(C)(=N)=O)CC2)nc(-c2ccnc3[nH]ccc23)n1 (stereo not drawn) + Cc1[nH]c2ccc(F)cc2c1-c1nc2c3cccnc3c3ncccc3c2[nH]1,IC50,second compound 0.0316 µM,> 10 µM
same,IC50,second compound 0.1 µM,> 10 µM
same,IC50,second compound 0.316 µM,> 10 µM
same,IC50,second compound 1 µM,> 10 µM
same,IC50,second compound 3.16 µM,> 10 µM
same,IC50,second compound 10 µM,> 10 µM
same,"viability, T/C",[1],103%
same,"viability, T/C",[2],96.9%
same,"viability, T/C",[3],110%
same,"viability, T/C",[4],83.9%
same,"viability, T/C",[5],114%
same,"viability, T/C",[6],60.6%
same,"viability, T/C",[7],110%
same,"viability, T/C",[8],107%
same,"viability, T/C",[9],138%
same,"viability, T/C",[10],132%
same,"viability, T/C",[11],106%
same,"viability, T/C",[12],67.5%
same,"viability, T/C",[13],135%
same,"viability, T/C",[14],117%
same,"viability, T/C",[15],109%
same,"viability, T/C",[16],124%
same,"viability, T/C",[17],79.6%
same,"viability, T/C",[18],67%
same,"viability, T/C",[19],118%
same,"viability, T/C",[20],106%
same,"viability, T/C",[21],109%
same,"viability, T/C",[22],106%
same,"viability, T/C",[23],106%
same,"viability, T/C",[24],80.1%
same,"viability, T/C",[25],92.3%
same,"viability, T/C",[26],124%
same,"viability, T/C",[27],87.2%
same,"viability, T/C",[28],104%
same,"viability, T/C",[29],88.8%
same,"viability, T/C",[30],81.4%
same,"viability, T/C",[31],138%
same,"viability, T/C",[32],104%
same,"viability, T/C",[33],128%
same,"viability, T/C",[34],96.3%
same,"viability, T/C",[35],101%
same,"viability, T/C",[36],89%
Nc1ccn(C2OC(CO)C(O)C2(F)F)c(=O)n1 (stereo not drawn) + Cc1[nH]c2ccc(F)cc2c1-c1nc2c3cccnc3c3ncccc3c2[nH]1,IC50,second compound 0.0316 µM,< 0.0316 µM
same,IC50,second compound 0.1 µM,< 0.0316 µM
same,IC50,second compound 0.316 µM,< 0.0316 µM
same,IC50,second compound 1 µM,< 0.0316 µM
same,IC50,second compound 3.16 µM,< 0.0316 µM
same,IC50,second compound 10 µM,< 0.0316 µM
same,"viability, T/C",[1],25.1%
same,"viability, T/C",[2],27.1%
same,"viability, T/C",[3],25.2%
same,"viability, T/C",[4],18.3%
same,"viability, T/C",[5],22.5%
same,"viability, T/C",[6],21.7%
same,"viability, T/C",[7],25.6%
same,"viability, T/C",[8],23.2%
same,"viability, T/C",[9],23.9%
same,"viability, T/C",[10],21.1%
same,"viability, T/C",[11],23%
same,"viability, T/C",[12],22.9%
same,"viability, T/C",[13],25.1%
same,"viability, T/C",[14],23.4%
same,"viability, T/C",[15],24%
same,"viability, T/C",[16],19.2%
same,"viability, T/C",[17],22.7%
same,"viability, T/C",[18],22.1%
same,"viability, T/C",[19],22.4%
same,"viability, T/C",[20],25.7%
same,"viability, T/C",[21],20.1%
same,"viability, T/C",[22],26.4%
same,"viability, T/C",[23],24.2%
same,"viability, T/C",[24],21.7%
same,"viability, T/C",[25],22.6%
same,"viability, T/C",[26],29.2%
same,"viability, T/C",[27],23.3%
same,"viability, T/C",[28],20.4%
same,"viability, T/C",[29],27%
same,"viability, T/C",[30],18.3%
same,"viability, T/C",[31],27.6%
same,"viability, T/C",[32],22.3%
same,"viability, T/C",[33],27%
same,"viability, T/C",[34],23.4%
same,"viability, T/C",[35],26.3%
same,"viability, T/C",[36],26.3%
